# According to BindingDB's records for patent US20240400545 (Hangzhou Innogate Pharma, 2024):
# Molecular target: T1, Histone acetyltransferase KAT6A [507-778] (Homo sapiens, UniProt Q92794)
# T1 construct: 507-778
# Assay: Inhibition of KAT6A Enzyme Activity Assay
# Description: 1× experimental buffer (modified Tris buffer) was prepared, and the compounds were dissolved with 100% DMSO to form 10 mM reservoir solution and diluted according to a certain concentration gradient. The compounds were transferred to a 384-well plate using an automatic sampler Echo, and the final concentration of DMSO was 1%. 1× KAT6A enzyme (catalytic domain) solution was prepared. A mixed solution of [3H]-acetyl-CoA (PERKIN ELMER, Cat. No. NET290250UC) and the substrate peptide H3 (1-21) was prepared. 10 μL of the enzyme solution was transferred to the 384-well plate and incubated at room temperature for 15 minutes. 10 μL of the mixed solution of [3H]-acetyl-CoA and the substrate peptide H3 (1-21) were added to the plate to initiate the reaction. The plate was incubated at room temperature for 1 hour. 10 μL of the stop solution was added to terminate the reaction. 25 μL of the reaction solution was transferred to a Flashplate (Perkin Elmer, Cat. No. SMP410A001PK) and incubated at room temperature for 1 hour. The plate was read using Microbeta. The inhibition rate of the compounds was calculated using the formula of Excel: inhibition %=(Max-Signal)/(Max−Min)*100%. Where max is the value of the DMSO control, min is the value of the non-enzymatic control, and signal is the value of the well where the compound was tested.
# T1 sequence (Q92794 507-778): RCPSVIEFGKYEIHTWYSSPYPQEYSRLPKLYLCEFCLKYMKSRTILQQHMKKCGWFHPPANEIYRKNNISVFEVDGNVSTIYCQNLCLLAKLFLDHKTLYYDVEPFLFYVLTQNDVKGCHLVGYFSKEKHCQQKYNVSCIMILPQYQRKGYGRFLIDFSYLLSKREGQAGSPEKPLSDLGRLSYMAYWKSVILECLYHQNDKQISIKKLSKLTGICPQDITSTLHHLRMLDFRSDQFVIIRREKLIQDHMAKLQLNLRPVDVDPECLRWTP
row,IC50 [µM],SMILES
1,< 0.2,"COc1ccc(N2CCN(C)CC2)cc1S(=O)(=O)Nc1noc2cc(Cn3cccn3)cc(OC)c12 [US20240400545, Compound 5]"
2,< 0.005,"COc1cc(C#CC2CC2)cc(OC)c1S(=O)(=O)Nc1noc2cc(Cn3cccn3)cc(OC)c12 [US20240400545, Compound 10]"
3,< 0.1,"COc1ccc(N2CCOCC2)cc1S(=O)(=O)Nc1noc2cc(Cn3cccn3)cc(OC)c12 [US20240400545, Compound 6]"
4,< 0.01,"CC#Cc1cc(OC)c(S(=O)(=O)Nc2noc3cc(Cn4cccn4)cc(OC)c23)c(OC)c1 [US20240400545, Compound 9]"
5,< 0.02,"CC#Cc1ccc(OC)c(S(=O)(=O)Nc2noc3cc(Cn4cccn4)cc(OC)c23)c1 [US20240400545, Compound 13]"
6,< 0.005,"COc1cc(C#CC2CN(C(=O)OC(C)(C)C)C2)cc(OC)c1S(=O)(=O)Nc1noc2cc(Cn3cccn3)cc(OC)c12 [US20240400545, Compound 20]"
7,< 0.02,"C#Cc1ccc(OC)c(S(=O)(=O)Nc2noc3cc(Cn4cccn4)cc(OC)c23)c1 [US20240400545, Compound 3]"
8,< 0.02,"CC#Cc1cccc(OC)c1S(=O)(=O)Nc1noc2cc(Cn3cccn3)cc(OC)c12 [US20240400545, Compound 23]"
9,< 0.02,"COc1cc(C#CC2CN(C)C2)cc(OC)c1S(=O)(=O)Nc1noc2cc(Cn3cccn3)cc(OC)c12 [US20240400545, Compound 22]"
10,< 0.01,"CC#Cc1ccc(S(=O)(=O)Nc2noc3cc(Cn4cccn4)cc(OC)c23)c(OC)c1 [US20240400545, Compound 16]"
11,< 0.01,"COc1cc(C#CC2CNC2)cc(OC)c1S(=O)(=O)Nc1noc2cc(Cn3cccn3)cc(OC)c12 [US20240400545, Compound 21]"
12,< 0.01,"COc1cc(C#Cc2cccnc2)cc(O)c1S(=O)(=O)Nc1noc2cc(Cn3cccn3)cc(OC)c12 [US20240400545, Compound 19']"
13,< 0.01,"C#Cc1ccc(S(=O)(=O)Nc2noc3cc(Cn4cccn4)cc(OC)c23)c(OC)c1 [US20240400545, Compound 11]"
14,< 0.02,"COc1cc(C#CC2CN(C)C2)ccc1S(=O)(=O)Nc1noc2cc(Cn3cccn3)cc(OC)c12 [US20240400545, Compound 24]"
15,< 0.01,"COc1cc(C#CC2CC2)ccc1S(=O)(=O)Nc1noc2cc(Cn3cccn3)cc(OC)c12 [US20240400545, Compound 12]"
16,< 1,"COc1ccc(C#CC2CC2)cc1S(=O)(=O)NC(=O)c1cc2ccc(N(C)C)cc2o1 [US20240400545, Compound 8]"
17,< 0.005,"COc1cc(C#CC2CC(F)(F)C2)cc(OC)c1S(=O)(=O)Nc1noc2cc(Cn3cccn3)cc(OC)c12 [US20240400545, Compound 15]"
18,< 0.01,"COc1ccc(C#CC2CC2)cc1S(=O)(=O)Nc1noc2cc(Cn3cccn3)cc(OC)c12 [US20240400545, Compound 7]"

row,SMILES,IC50 [µM]
1,"COc1cc(C#Cc2cccnc2)cc(OC)c1S(=O)(=O)Nc1noc2cc(Cn3cccn3)cc(OC)c12 [US20240400545, Compound 19]",< 0.005
